ChEMBL document CHEMBL4308841, “Synthesis, in vitro antiproliferative activity, and kinase inhibitory effects of pyrazole-containing diarylureas and diarylamides” (Eur J Med Chem, 2018)
pIC50: −log10 of the molar value.

Legend:
[1] = tested on: MCF7; assay: Growth inhibition of human MCF7 cells assessed as cell growth at 1 uM incubated for 48 hrs by sulforhodamine B assay relative to control; assay type: functional; conditions: MCF7, 48 h, read-out: Activity
[2] = tested on: ACHN; assay: Growth inhibition of human ACHN cells assessed as cell growth at 1 uM incubated for 48 hrs by sulforhodamine B assay relative to control; assay type: functional; conditions: read-out: Activity
[3] = tested on: RXF 393; assay: Growth inhibition of human RXF393 cells assessed as cell growth at 0.1 uM incubated for 48 hrs by sulforhodamine B assay relative to control; assay type: functional; conditions: RXF 393, 48 h, read-out: Activity
[4] = tested on: SR; assay: Growth inhibition of human SR cells incubated for 48 hrs by sulforhodamine B assay; assay type: functional, cell-based
[5] = tested on: IGROV-1; assay: Growth inhibition of human IGROV1 cells incubated for 48 hrs by sulforhodamine B assay; assay type: functional, cell-based; conditions: IGROV-1, 48 h
[6] = tested on: MOLT-4; assay: Growth inhibition of human MOLT4 cells assessed as cell growth at 1 uM incubated for 48 hrs by sulforhodamine B assay relative to control; assay type: functional; conditions: MOLT-4, 48 h, read-out: Activity
[7] = tested on: MDA-MB-468; assay: Growth inhibition of human MDA-MB-468 cells assessed as cell growth at 0.01 uM incubated for 48 hrs by sulforhodamine B assay relative to control; assay type: functional; conditions: MDA-MB-468, 48 h, read-out: Activity
[8] = tested on: 786-0; assay: Growth inhibition of human 786-0 cells incubated for 48 hrs by sulforhodamine B assay; assay type: functional, cell-based; conditions: 786-0, 48 h
[9] = tested on: HL-60(TB); assay: Growth inhibition of human HL-60(TB) cells assessed as cell growth at 0.1 uM incubated for 48 hrs by sulforhodamine B assay relative to control; assay type: functional; conditions: HL-60, 48 h, read-out: Activity
[10] = tested on: RPMI-8226; assay: Growth inhibition of human RPMI8226 cells assessed as cell growth at 1 uM incubated for 48 hrs by sulforhodamine B assay relative to control; assay type: functional; conditions: RPMI-8226, 48 h, read-out: Activity
[11] = tested on: A498; assay: Growth inhibition of human A498 cells incubated for 48 hrs by sulforhodamine B assay; assay type: functional, cell-based; conditions: A498, 48 h
[12] = tested on: A498; assay: Growth inhibition of human A498 cells assessed as cell growth at 0.1 uM incubated for 48 hrs by sulforhodamine B assay relative to control; assay type: functional; conditions: A498, 48 h, read-out: Activity
[13] = tested on: SW-620; assay: Growth inhibition of human SW620 cells assessed as cell growth at 0.01 uM incubated for 48 hrs by sulforhodamine B assay relative to control; assay type: functional; conditions: SW-620, 48 h, read-out: Activity
[14] = tested on: RXF 393; assay: Growth inhibition of human RXF393 cells assessed as cell growth at 1 uM incubated for 48 hrs by sulforhodamine B assay relative to control; assay type: functional; conditions: RXF 393, 48 h, read-out: Activity
[15] = tested on: HCC 2998; assay: Growth inhibition of human HCC2998 cells assessed as cell growth at 100 uM incubated for 48 hrs by sulforhodamine B assay relative to control; assay type: functional; conditions: HCC 2998, 48 h, read-out: Activity
[16] = tested on: CCRF-CEM; assay: Growth inhibition of human CCRF-CEM cells assessed as cell growth at 100 uM incubated for 48 hrs by sulforhodamine B assay relative to control; assay type: functional; conditions: read-out: Activity
[17] = tested on: BT-549; assay: Growth inhibition of human BT549 cells assessed as cell growth at 1 uM incubated for 48 hrs by sulforhodamine B assay relative to control; assay type: functional; conditions: BT-549, 48 h, read-out: Activity
[18] = tested on: OVCAR-3; assay: Growth inhibition of human OVCAR3 cells incubated for 48 hrs by sulforhodamine B assay; assay type: functional, cell-based; conditions: OVCAR-3, 48 h
[19] = tested on: BT-549; assay: Growth inhibition of human BT549 cells assessed as cell growth at 0.01 uM incubated for 48 hrs by sulforhodamine B assay relative to control; assay type: functional; conditions: BT-549, 48 h, read-out: Activity
[20] = tested on: HCT-116; assay: Growth inhibition of human HCT116 cells assessed as cell growth at 1 uM incubated for 48 hrs by sulforhodamine B assay relative to control; assay type: functional; conditions: HCT-116, 48 h, read-out: Activity
[21] = tested on: SN12C; assay: Growth inhibition of human SN12C cells assessed as cell growth at 100 uM incubated for 48 hrs by sulforhodamine B assay relative to control; assay type: functional; conditions: read-out: Activity
[22] = tested on: PC-3; assay: Growth inhibition of human PC3 cells incubated for 48 hrs by sulforhodamine B assay; assay type: functional, cell-based; conditions: PC-3, 48 h
[23] = tested on: SF-539; assay: Growth inhibition of human SF539 cells assessed as cell growth at 1 uM incubated for 48 hrs by sulforhodamine B assay relative to control; assay type: functional; conditions: SF-539, 48 h, read-out: Activity
[24] = tested on: UACC-257; assay: Growth inhibition of human UACC257 cells assessed as cell growth at 0.01 uM incubated for 48 hrs by sulforhodamine B assay relative to control; assay type: functional; conditions: UACC-257, 48 h, read-out: Activity
[25] = tested on: NCI/ADR-RES; assay: Growth inhibition of human NCI/ADR-RES cells incubated for 48 hrs by sulforhodamine B assay; assay type: functional, cell-based
[26] = tested on: NCI-H460; assay: Growth inhibition of human NCI-H460 cells incubated for 48 hrs by sulforhodamine B assay; assay type: functional, cell-based; conditions: NCI-H460, 48 h
[27] = tested on: M14; assay: Growth inhibition of human M14 cells incubated for 48 hrs by sulforhodamine B assay; assay type: functional, cell-based; conditions: M14, 48 h
[28] = tested on: 786-0; assay: Growth inhibition of human 786-0 cells assessed as cell growth at 0.01 uM incubated for 48 hrs by sulforhodamine B assay relative to control; assay type: functional; conditions: 786-0, 48 h, read-out: Activity
[29] = read-out: LC50 (the source's name)
[30] = read-out: pLC50 (the source's name) (converted)

COc1cc(Cl)cc(-c2nn(-c3cccc(NC(=O)c4ccc(N5CCOCC5)c(C(F)(F)F)c4)c3)cc2-c2ccncc2)c1
growth at 1 µM [1]: 90%
growth at 1 µM [2]: 58%
growth at 0.1 µM [3]: 100%
GI50 ([4]; read-out: GI50): 3.06 µM
CC50 [4, 29]: > 100 µM
TGI ([4]; read-out: TGI): > 100 µM
GI50 ([4]; read-out: pGI50 (converted)): 3.09 µM
CC50 [4, 30]: > 100 µM
TGI ([4]; read-out: pTGI (converted)): > 100 µM
GI50 ([5]; read-out: GI50): > 100 µM
CC50 [5, 29]: > 100 µM
TGI ([5]; read-out: TGI): > 100 µM
GI50 ([5]; read-out: pGI50 (converted)): > 100 µM
CC50 [5, 30]: > 100 µM
TGI ([5]; read-out: pTGI (converted)): > 100 µM
growth at 1 µM [6]: 77%
growth at 0.01 µM [7]: 94%
GI50 ([8]; read-out: GI50): 3.73 µM
CC50 [8, 29]: > 100 µM
TGI ([8]; read-out: TGI): 29.6 µM
GI50 ([8]; read-out: pGI50 (converted)): 3.24 µM
CC50 [8, 30]: > 100 µM
TGI ([8]; read-out: pTGI (converted)): 29.5 µM
growth at 0.1 µM [9]: 91%
growth at 1 µM [10]: 59%
GI50 ([11]; read-out: GI50): 1.52 µM
CC50 [11, 29]: > 100 µM
TGI ([11]; read-out: TGI): > 100 µM
GI50 ([11]; read-out: pGI50 (converted)): 16.2 µM
CC50 [11, 30]: > 100 µM
TGI ([11]; read-out: pTGI (converted)): > 100 µM
growth at 0.1 µM [12]: 85%
growth at 0.01 µM [13]: 96%
growth at 1 µM [14]: 45%
growth at 100 µM [15]: -5%
growth at 100 µM [16]: 18%
growth at 1 µM [17]: 59%
pIC50 [18]: 4.27
GI50 ([18]; read-out: GI50): 5.31 µM
CC50 [18, 29]: > 100 µM
TGI ([18]; read-out: TGI): > 100 µM
GI50 ([18]; read-out: pGI50 (converted)): 53.7 µM
CC50 [18, 30]: > 100 µM
TGI ([18]; read-out: pTGI (converted)): > 100 µM
growth at 0.01 µM [19]: 104%
growth at 1 µM [20]: 90%
growth at 100 µM [21]: 55%
pIC50 [22]: 5.48
GI50 ([22]; read-out: GI50): 3.3 µM
CC50 [22, 29]: > 100 µM
TGI ([22]; read-out: TGI): > 100 µM
GI50 ([22]; read-out: pGI50 (converted)): 3.31 µM
CC50 [22, 30]: > 100 µM
TGI ([22]; read-out: pTGI (converted)): > 100 µM
growth at 1 µM [23]: 57%
growth at 0.01 µM [24]: 91%
GI50 ([25]; read-out: GI50): 5.17 µM
CC50 [25, 29]: > 100 µM
TGI ([25]; read-out: TGI): > 100 µM
GI50 ([25]; read-out: pGI50 (converted)): 6.17 µM
CC50 [25, 30]: > 100 µM
TGI ([25]; read-out: pTGI (converted)): > 100 µM
GI50 ([26]; read-out: GI50): 4.79 µM
CC50 [26, 29]: > 100 µM
TGI ([26]; read-out: TGI): > 100 µM
GI50 ([26]; read-out: pGI50 (converted)): 4.79 µM
CC50 [26, 30]: > 100 µM
TGI ([26]; read-out: pTGI (converted)): > 100 µM
GI50 ([27]; read-out: GI50): 7.93 µM
CC50 [27, 29]: > 100 µM
TGI ([27]; read-out: TGI): > 100 µM
GI50 ([27]; read-out: pGI50 (converted)): 7.94 µM
CC50 [27, 30]: > 100 µM
TGI ([27]; read-out: pTGI (converted)): > 100 µM
growth at 0.01 µM [28]: 96%
